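How tested: cells in 96-well plates exposed to compound for 48 hours at five concentrations. GI50: concentration for 50% inhibition of growth.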 Calls of active or inactive are those of the source. Cut-off read from the data, not from the text of the source: active = GI50 up to about 1.1 µM and inactive = higher.
How the values were obtained:
Assay in all cases: inhibition of tumour cell growth, NCI panel, 48 h
NCI-H226 = system: NCI-H226
UACC-257 = system: UACC-257
COLO 205 = system: COLO 205
SF-295 = system: SF-295
MCF7 = system: MCF7
LOX IMVI = system: LOX IMVI
T47D = system: T47D
786-0 = system: 786-0
HL-60 = system: HL-60
KM12 = system: KM12
A549 = system: A549
BT-549 = system: BT-549
UACC-62 = system: UACC-62
HCC 2998 = system: HCC 2998
NCI/ADR-RES = system: NCI/ADR-RES
DU-145 = system: DU-145
SNB-75 = system: SNB-75
NCI-H23 = system: NCI-H23
TK-10 = system: TK-10

SMILES | GI50 (NCI-H226) | GI50 (UACC-257) | GI50 (COLO 205) | GI50 (SF-295) | GI50 (MCF7) | GI50 (LOX IMVI) | GI50 (T47D) | GI50 (786-0) | GI50 (HL-60) | GI50 (KM12) | GI50 (A549) | GI50 (BT-549) | GI50 (UACC-62) | GI50 (HCC 2998) | GI50 (NCI/ADR-RES) | GI50 (DU-145) | GI50 (SNB-75) | GI50 (NCI-H23) | GI50 (TK-10)
CCOC1(OCC)C2C=CC1C(COS(=O)(=O)c1ccc(C)cc1)C2COS(=O)(=O)c1ccc(C)cc1 (stereo unspecified) | 24.3 µM (inactive) | 25.4 µM (inactive) | 24.1 µM (inactive) | 96.6 µM (inactive) | 30.2 µM (inactive) | 24.9 µM (inactive) | 14.2 µM (inactive) | 33.3 µM (inactive) | 16.9 µM (inactive) | 31.1 µM (inactive) | 34.6 µM (inactive) | 29.3 µM (inactive) | 20.4 µM (inactive) | 38.3 µM (inactive) | 32 µM (inactive) | 39.8 µM (inactive) | 24.8 µM (inactive) | 39.1 µM (inactive) | 41.2 µM (inactive)
COC(=O)C1=NN2c3ccccc3CN([C@@H](C)c3ccccc3)C(=O)[C@@H]2[C@H]1c1ccccc1 | > 100 µM (inactive) | > 100 µM (inactive) | > 100 µM (inactive) | > 100 µM (inactive) | > 100 µM (inactive) | > 100 µM (inactive) | 9.75 µM (inactive) | > 100 µM (inactive) | > 100 µM (inactive) | > 100 µM (inactive) | > 100 µM (inactive) | > 100 µM (inactive) | > 100 µM (inactive) | > 100 µM (inactive) | 32.1 µM (inactive) | > 100 µM (inactive) | 30.3 µM (inactive) | > 100 µM (inactive) | > 100 µM (inactive)
O=C1Nc2ccccc2/C1=N/Nc1c(F)c(F)c(F)c(F)c1F | 53 µM (inactive) | 27.2 µM (inactive) | 13.9 µM (inactive) | > 100 µM (inactive) | 36.6 µM (inactive) | 31.2 µM (inactive) | 22 µM (inactive) | 22 µM (inactive) | 2.77 µM (inactive) | 16.1 µM (inactive) | > 100 µM (inactive) | > 100 µM (inactive) | > 100 µM (inactive) | > 100 µM (inactive) | 70.1 µM (inactive) | 67 µM (inactive) | 91.4 µM (inactive) | 87.7 µM (inactive) | 22 µM (inactive)
CNC1C(O)C(NC)C2OC3(O)C(=O)CC(C)OC3OC2C1O (stereo unspecified) | > 100 µM (inactive) | > 100 µM (inactive) | > 100 µM (inactive) | > 100 µM (inactive) | > 100 µM (inactive) | > 100 µM (inactive) | > 100 µM (inactive) | > 100 µM (inactive) | > 100 µM (inactive) | > 100 µM (inactive) | > 100 µM (inactive) | > 100 µM (inactive) | > 100 µM (inactive) | > 100 µM (inactive) | > 100 µM (inactive) | > 100 µM (inactive) | > 100 µM (inactive) | > 100 µM (inactive) | > 100 µM (inactive)
OC1(c2ccccc2)CCN(Cc2c[nH]c3ccccc23)CC1 | > 100 µM (inactive) | 18.3 µM (inactive) | 17.5 µM (inactive) | 92.7 µM (inactive) | 50.5 µM (inactive) | 76.4 µM (inactive) | 35.6 µM (inactive) | 44 µM (inactive) | 48.2 µM (inactive) | 75.3 µM (inactive) | > 100 µM (inactive) | > 100 µM (inactive) | 47.8 µM (inactive) | 17.8 µM (inactive) | > 100 µM (inactive) | > 100 µM (inactive) | > 100 µM (inactive) | 96.6 µM (inactive) | > 100 µM (inactive)
Cc1ccc2c(c1)C(=O)/C(=C\c1ccccc1)CCS2(=O)=O | 15.7 µM (inactive) | 12.3 µM (inactive) | 17.4 µM (inactive) | 14.2 µM (inactive) | 6.21 µM (inactive) | 10.7 µM (inactive) | 11.7 µM (inactive) | 11.2 µM (inactive) | 0.303 µM (active) | 10.5 µM (inactive) | 12.9 µM (inactive) | 6.68 µM (inactive) | 11.9 µM (inactive) | 12.2 µM (inactive) | 7.23 µM (inactive) | 3.27 µM (inactive) | 20.6 µM (inactive) | 12.7 µM (inactive) | 13.8 µM (inactive)
N#Cc1nc(C#N)c(N)[nH]1 | > 100 µM (inactive) | > 100 µM (inactive) | > 100 µM (inactive) | > 100 µM (inactive) | > 100 µM (inactive) | > 100 µM (inactive) | > 100 µM (inactive) | > 100 µM (inactive) | > 100 µM (inactive) | > 100 µM (inactive) | > 100 µM (inactive) | > 100 µM (inactive) | > 100 µM (inactive) | > 100 µM (inactive) | > 100 µM (inactive) | > 100 µM (inactive) | > 100 µM (inactive) | > 100 µM (inactive) | > 100 µM (inactive)
CC(C)(C)OC(=O)c1ccc(NCC2=CC(=O)C=CC2=O)cc1 | 18.2 µM (inactive) | 12.3 µM (inactive) | 2.83 µM (inactive) | 23 µM (inactive) | 0.706 µM (active) | 10.7 µM (inactive) | 1.95 µM (inactive) | 9.35 µM (inactive) | 1.03 µM (active) | 14.5 µM (inactive) | 18.1 µM (inactive) | 11.6 µM (inactive) | 13.2 µM (inactive) | 20 µM (inactive) | 8.93 µM (inactive) | 16.1 µM (inactive) | 8.28 µM (inactive) | 8.61 µM (inactive) | 9.25 µM (inactive)
O=C(NN1CCCCC1)c1cc2cc(CCl)ccc2oc1=O | 20.6 µM (inactive) | 21.6 µM (inactive) | 17.9 µM (inactive) | 20.1 µM (inactive) | 38.7 µM (inactive) | 18.5 µM (inactive) | 20.9 µM (inactive) | 16.5 µM (inactive) | 16.5 µM (inactive) | 22.1 µM (inactive) | 19.6 µM (inactive) | 19.3 µM (inactive) | 27.7 µM (inactive) | 13.9 µM (inactive) | 23.1 µM (inactive) | 29.4 µM (inactive) | 18.6 µM (inactive) | 16.5 µM (inactive) | 17 µM (inactive)
O=C(NCCCN(CCCCN(CCCNC(=O)C(F)(F)F)CCCc1ccccc1)CCCc1ccccc1)C(F)(F)F | 10.4 µM (inactive) | 1.71 µM (inactive) | 1.56 µM (inactive) | 1.81 µM (inactive) | 1.48 µM (inactive) | 1.85 µM (inactive) | 1.85 µM (inactive) | 1.25 µM (inactive) | 2.93 µM (inactive) | 1.95 µM (inactive) | 1.82 µM (inactive) | 2.68 µM (inactive) | 1.8 µM (inactive) | 1.78 µM (inactive) | 3.45 µM (inactive) | 2 µM (inactive) | 1.12 µM (active) | 12.7 µM (inactive) | 1.91 µM (inactive)
COc1cc(/C=N/N=C2NCCCCN2)ccc1O | > 100 µM (inactive) | > 100 µM (inactive) | > 100 µM (inactive) | 61.7 µM (inactive) | 50.2 µM (inactive) | > 100 µM (inactive) | 53.8 µM (inactive) | > 100 µM (inactive) | > 100 µM (inactive) | > 100 µM (inactive) | > 100 µM (inactive) | > 100 µM (inactive) | > 100 µM (inactive) | > 100 µM (inactive) | > 100 µM (inactive) | > 100 µM (inactive) | > 100 µM (inactive) | > 100 µM (inactive) | > 100 µM (inactive)
COC(=O)C1=C(O)C(C(=O)OC)[C@@]2(O)[C@@H](C(=O)OC)C(c3ccc(OC(=O)/C=C/c4ccccc4)cc3)C[C@@H]1[C@@H]2C(=O)OC (stereo partly specified) | 22.6 µM (inactive) | 7.23 µM (inactive) | 10.1 µM (inactive) | 23.9 µM (inactive) | 2.99 µM (inactive) | 2.31 µM (inactive) | 8.49 µM (inactive) | 10 µM (inactive) | 4.55 µM (inactive) | 5.37 µM (inactive) | 12.6 µM (inactive) | 8.22 µM (inactive) | 4.36 µM (inactive) | 4.89 µM (inactive) | 8.41 µM (inactive) | 11 µM (inactive) | 29.6 µM (inactive) | 13.3 µM (inactive) | 6.82 µM (inactive)
O=[N+]([O-])c1cc2oc(COc3ccccc3)nc2cc1Cl | 17 µM (inactive) | 22.1 µM (inactive) | 20.6 µM (inactive) | 17.4 µM (inactive) | 23.8 µM (inactive) | 16.7 µM (inactive) | 18.4 µM (inactive) | 33.1 µM (inactive) | 38.1 µM (inactive) | 20.9 µM (inactive) | 33.5 µM (inactive) | 20.8 µM (inactive) | 17.1 µM (inactive) | 20 µM (inactive) | 21.4 µM (inactive) | 32.3 µM (inactive) | 18.7 µM (inactive) | 17.1 µM (inactive) | 35 µM (inactive)
CN(C)CCn1c(=O)c2ccc(NCCNCCO)c3c(=O)c4cc(O)ccc4n(c1=O)c23 | 0.839 µM (active) | 4.43 µM (inactive) | 0.634 µM (active) | 1.6 µM (inactive) | 0.465 µM (active) | 0.91 µM (active) | 2.31 µM (inactive) | 0.617 µM (active) | 1.47 µM (inactive) | 3.57 µM (inactive) | 0.607 µM (active) | 10.9 µM (inactive) | 1.47 µM (inactive) | 0.661 µM (active) | 17.1 µM (inactive) | 0.875 µM (active) | 1.2 µM (inactive) | 1.01 µM (active) | 4.63 µM (inactive)
